# What was measured:
# Experiment in all cases: Eurofins kinase selectivity profile against 380 other human recombinant kinases (Table S2)
# Type in all cases: biochemical
# [1] = molecular target: T1, 380 human recombinant protein kinases (Homo sapiens, UniProt P11362); settings: FGFR1(h), read-out: Inhibition rate
# T1 construct: purchased Eurofins (Celle Lévescault)
# How it was run: (§1)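 Off-target profiling: one compound assayed by a commercial provider over 380 recombinant human protein kinases at various concentrations.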
# [2] = molecular target: T2, 380 human recombinant protein kinases (Homo sapiens, UniProt Q02763); settings: Tie2 (h), read-out: Inhibition rate (%)
# T2 construct: purchased Eurofins (Celle Lévescault)
# How it was run: as §1
# [3] = molecular target: T3, 380 human recombinant protein kinases (Homo sapiens, UniProt P07947); settings: Yes(h), read-out: Inhibition rate (%)
# T3 construct: purchased Eurofins (Celle Lévescault)
# How it was run: as §1
# [4] = molecular target: T4, 380 human recombinant protein kinases (Homo sapiens, UniProt Q96GD4); settings: Aurora-B(h), read-out: Inhibition rate
# T4 construct: purchased Eurofins (Celle Lévescault)
# How it was run: as §1
# [5] = molecular target: T5, 380 human recombinant protein kinases (Homo sapiens, UniProt Q14164); settings: IKKε(h), read-out: Inhibition rate
# T5 construct: purchased Eurofins (Celle Lévescault)
# T5 sequence (Q14164 1-716): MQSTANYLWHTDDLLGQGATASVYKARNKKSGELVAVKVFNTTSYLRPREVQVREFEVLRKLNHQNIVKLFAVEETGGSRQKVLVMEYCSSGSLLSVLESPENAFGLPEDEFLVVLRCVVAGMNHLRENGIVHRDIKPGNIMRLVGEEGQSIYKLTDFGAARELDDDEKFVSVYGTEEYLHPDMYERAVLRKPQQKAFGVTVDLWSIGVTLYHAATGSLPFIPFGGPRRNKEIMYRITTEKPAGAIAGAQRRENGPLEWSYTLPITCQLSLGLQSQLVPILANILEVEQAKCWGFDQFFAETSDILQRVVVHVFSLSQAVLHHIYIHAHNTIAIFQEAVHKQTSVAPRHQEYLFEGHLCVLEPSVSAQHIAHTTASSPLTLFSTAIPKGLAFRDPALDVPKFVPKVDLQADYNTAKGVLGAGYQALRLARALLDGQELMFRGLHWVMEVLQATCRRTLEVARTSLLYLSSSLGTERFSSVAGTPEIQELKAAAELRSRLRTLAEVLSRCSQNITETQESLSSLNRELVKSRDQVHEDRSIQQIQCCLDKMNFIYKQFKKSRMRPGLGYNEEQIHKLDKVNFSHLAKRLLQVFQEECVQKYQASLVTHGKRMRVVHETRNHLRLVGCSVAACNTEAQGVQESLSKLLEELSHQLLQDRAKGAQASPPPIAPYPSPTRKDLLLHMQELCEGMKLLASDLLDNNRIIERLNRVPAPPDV
# How it was run: as §1
# [6] = molecular target: T6, 380 human recombinant protein kinases (Homo sapiens, UniProt Q8IY84); settings: NIM1(h), read-out: Inhibition rate
# T6 construct: purchased Eurofins (Celle Lévescault)
# How it was run: as §1
# [7] = molecular target: T7, 380 human recombinant protein kinases (Homo sapiens, UniProt P51451); settings: Blk(h), read-out: Inhibition rate
# T7 construct: purchased Eurofins (Celle Lévescault)
# How it was run: as §1
# [8] = molecular target: T8, 380 human recombinant protein kinases (Homo sapiens, UniProt Q96PF2); settings: TSSK2(h), read-out: Inhibition rate (%)
# T8 construct: purchased Eurofins (Celle Lévescault)
# T8 sequence (Q96PF2 1-358): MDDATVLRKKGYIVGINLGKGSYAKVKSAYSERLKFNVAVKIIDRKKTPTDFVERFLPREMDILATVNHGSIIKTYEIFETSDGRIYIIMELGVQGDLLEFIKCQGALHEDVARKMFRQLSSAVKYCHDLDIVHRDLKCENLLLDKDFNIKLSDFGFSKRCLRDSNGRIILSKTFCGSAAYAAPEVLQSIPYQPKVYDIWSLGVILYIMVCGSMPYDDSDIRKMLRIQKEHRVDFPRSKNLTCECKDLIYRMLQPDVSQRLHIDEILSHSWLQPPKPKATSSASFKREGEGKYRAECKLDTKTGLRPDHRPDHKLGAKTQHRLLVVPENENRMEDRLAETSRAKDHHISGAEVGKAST
# How it was run: as §1
# [9] = molecular target: T9, 380 human recombinant protein kinases (Homo sapiens, UniProt O15530); settings: PDK1(h), read-out: Inhibition rate
# T9 construct: purchased Eurofins (Celle Lévescault)
# T9 sequence (O15530 1-556): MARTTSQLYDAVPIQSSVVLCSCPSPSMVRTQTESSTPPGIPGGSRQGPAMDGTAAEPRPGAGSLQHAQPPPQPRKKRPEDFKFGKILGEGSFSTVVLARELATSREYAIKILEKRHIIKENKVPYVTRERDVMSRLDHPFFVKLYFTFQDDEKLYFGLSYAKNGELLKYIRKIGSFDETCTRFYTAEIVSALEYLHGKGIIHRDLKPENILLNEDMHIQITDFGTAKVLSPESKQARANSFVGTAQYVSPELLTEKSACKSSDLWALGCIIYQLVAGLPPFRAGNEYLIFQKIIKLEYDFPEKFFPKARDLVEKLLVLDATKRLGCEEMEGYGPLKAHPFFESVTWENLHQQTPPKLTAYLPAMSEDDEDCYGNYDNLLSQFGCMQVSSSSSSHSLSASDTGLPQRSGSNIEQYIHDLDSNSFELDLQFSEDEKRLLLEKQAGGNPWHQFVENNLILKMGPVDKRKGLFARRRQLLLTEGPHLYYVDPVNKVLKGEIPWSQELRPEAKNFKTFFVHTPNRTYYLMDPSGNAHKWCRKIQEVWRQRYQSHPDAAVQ
# How it was run: as §1
# [10] = molecular target: T10, 380 human recombinant protein kinases (Homo sapiens, UniProt Q07912); settings: ACK1(h), read-out: Inhibition rate
# T10 construct: purchased Eurofins (Celle Lévescault)
# How it was run: as §1
# T10 sequence (Q07912 whole entry): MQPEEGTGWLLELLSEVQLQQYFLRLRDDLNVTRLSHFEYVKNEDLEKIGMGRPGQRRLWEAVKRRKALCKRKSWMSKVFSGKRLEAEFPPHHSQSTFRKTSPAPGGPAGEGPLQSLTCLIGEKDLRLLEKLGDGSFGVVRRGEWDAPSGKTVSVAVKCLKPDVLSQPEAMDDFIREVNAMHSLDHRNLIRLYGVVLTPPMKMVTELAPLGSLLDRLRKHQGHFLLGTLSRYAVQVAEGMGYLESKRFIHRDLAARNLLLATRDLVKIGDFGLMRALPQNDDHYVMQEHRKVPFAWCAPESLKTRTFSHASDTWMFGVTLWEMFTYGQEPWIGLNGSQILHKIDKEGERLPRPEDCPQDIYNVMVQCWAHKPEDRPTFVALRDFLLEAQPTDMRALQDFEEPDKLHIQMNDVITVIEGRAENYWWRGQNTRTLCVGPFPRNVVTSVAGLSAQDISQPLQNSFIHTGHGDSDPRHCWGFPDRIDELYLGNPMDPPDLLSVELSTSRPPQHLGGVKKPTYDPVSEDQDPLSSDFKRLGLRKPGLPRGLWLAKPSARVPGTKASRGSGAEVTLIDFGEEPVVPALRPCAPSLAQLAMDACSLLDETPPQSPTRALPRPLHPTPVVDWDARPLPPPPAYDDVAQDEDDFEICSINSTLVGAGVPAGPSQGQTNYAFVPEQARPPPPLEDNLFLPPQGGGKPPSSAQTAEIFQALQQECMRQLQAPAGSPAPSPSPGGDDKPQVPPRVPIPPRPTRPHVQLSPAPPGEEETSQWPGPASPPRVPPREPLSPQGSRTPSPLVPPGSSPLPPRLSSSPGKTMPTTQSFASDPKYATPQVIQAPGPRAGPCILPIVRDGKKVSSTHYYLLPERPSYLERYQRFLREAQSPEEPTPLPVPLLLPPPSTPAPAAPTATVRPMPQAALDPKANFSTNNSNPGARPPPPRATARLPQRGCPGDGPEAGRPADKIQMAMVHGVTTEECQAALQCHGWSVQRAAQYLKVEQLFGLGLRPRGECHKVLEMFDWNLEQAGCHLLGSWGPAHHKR
# T3 sequence (P07947 whole entry): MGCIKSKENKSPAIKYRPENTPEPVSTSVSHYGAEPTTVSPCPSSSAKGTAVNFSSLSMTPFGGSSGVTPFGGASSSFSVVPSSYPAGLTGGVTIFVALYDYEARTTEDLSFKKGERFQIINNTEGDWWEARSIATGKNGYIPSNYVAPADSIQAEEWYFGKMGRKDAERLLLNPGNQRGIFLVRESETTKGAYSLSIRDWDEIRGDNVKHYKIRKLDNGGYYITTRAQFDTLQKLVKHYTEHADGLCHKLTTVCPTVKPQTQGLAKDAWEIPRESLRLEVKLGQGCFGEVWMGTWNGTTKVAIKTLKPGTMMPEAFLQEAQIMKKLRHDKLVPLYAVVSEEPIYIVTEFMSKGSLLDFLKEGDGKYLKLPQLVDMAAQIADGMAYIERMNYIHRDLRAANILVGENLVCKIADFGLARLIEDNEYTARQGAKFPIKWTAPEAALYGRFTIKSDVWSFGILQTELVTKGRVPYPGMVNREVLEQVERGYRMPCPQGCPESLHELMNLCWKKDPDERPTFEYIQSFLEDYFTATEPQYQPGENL
# T6 sequence (Q8IY84 whole entry): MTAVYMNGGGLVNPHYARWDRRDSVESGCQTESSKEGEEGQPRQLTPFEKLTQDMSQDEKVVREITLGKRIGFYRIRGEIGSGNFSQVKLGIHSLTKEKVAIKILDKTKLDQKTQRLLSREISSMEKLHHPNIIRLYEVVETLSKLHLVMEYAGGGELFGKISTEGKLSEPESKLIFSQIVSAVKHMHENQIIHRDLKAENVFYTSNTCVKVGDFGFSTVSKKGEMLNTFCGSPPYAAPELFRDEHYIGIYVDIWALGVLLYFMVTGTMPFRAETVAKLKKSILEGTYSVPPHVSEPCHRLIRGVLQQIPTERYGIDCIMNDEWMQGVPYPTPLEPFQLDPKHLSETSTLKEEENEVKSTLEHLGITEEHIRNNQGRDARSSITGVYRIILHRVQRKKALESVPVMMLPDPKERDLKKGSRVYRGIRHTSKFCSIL
# T2 sequence (Q02763 23-1124): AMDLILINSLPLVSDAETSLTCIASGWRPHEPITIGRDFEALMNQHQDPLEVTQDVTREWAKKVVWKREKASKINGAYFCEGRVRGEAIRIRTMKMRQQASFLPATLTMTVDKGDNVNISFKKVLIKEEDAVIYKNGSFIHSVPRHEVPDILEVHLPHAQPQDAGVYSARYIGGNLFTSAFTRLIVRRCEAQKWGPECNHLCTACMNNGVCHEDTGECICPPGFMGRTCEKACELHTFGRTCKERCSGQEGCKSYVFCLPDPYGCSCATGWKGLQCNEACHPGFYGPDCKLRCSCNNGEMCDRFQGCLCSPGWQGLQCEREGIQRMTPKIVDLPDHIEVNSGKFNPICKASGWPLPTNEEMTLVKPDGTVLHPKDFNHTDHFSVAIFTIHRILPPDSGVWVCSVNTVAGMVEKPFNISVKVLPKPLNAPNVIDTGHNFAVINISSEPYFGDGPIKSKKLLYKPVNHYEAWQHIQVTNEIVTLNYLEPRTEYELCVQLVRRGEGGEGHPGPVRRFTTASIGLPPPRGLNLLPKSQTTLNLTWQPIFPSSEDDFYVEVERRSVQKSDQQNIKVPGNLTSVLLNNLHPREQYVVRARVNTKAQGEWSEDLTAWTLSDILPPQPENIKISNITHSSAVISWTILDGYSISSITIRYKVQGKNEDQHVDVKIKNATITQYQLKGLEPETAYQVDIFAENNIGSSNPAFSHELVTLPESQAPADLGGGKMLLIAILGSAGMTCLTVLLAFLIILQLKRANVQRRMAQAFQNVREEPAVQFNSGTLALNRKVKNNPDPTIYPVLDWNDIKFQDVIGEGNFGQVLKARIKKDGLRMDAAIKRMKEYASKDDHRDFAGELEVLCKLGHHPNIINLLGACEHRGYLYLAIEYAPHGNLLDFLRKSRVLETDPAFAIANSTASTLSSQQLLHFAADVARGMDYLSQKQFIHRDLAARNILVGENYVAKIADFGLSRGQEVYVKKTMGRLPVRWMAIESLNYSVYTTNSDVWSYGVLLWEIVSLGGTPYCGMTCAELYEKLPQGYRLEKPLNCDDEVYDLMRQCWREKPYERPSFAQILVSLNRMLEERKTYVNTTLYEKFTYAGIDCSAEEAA
# T1 sequence (P11362 22-822): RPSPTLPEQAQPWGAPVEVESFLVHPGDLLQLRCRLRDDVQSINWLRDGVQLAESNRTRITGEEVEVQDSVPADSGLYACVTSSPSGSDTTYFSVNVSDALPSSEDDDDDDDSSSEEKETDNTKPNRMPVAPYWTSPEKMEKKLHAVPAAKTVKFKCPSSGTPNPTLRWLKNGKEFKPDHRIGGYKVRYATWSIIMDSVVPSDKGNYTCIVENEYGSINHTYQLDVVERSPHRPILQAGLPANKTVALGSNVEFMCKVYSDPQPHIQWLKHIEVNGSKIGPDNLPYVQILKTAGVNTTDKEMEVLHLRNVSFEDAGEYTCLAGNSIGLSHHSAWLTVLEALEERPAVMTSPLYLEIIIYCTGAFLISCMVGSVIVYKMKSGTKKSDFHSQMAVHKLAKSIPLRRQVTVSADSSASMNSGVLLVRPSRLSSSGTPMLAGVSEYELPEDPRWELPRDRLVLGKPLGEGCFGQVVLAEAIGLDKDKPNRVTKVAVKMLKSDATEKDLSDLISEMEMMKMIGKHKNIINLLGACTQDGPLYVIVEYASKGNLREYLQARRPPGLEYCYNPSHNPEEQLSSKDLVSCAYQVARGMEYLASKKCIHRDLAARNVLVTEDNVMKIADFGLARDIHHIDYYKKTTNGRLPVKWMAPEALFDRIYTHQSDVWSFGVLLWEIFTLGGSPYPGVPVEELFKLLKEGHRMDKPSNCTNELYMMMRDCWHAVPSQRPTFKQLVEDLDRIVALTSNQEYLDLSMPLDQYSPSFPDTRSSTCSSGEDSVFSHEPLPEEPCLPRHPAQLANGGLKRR
# T7 sequence (P51451 whole entry): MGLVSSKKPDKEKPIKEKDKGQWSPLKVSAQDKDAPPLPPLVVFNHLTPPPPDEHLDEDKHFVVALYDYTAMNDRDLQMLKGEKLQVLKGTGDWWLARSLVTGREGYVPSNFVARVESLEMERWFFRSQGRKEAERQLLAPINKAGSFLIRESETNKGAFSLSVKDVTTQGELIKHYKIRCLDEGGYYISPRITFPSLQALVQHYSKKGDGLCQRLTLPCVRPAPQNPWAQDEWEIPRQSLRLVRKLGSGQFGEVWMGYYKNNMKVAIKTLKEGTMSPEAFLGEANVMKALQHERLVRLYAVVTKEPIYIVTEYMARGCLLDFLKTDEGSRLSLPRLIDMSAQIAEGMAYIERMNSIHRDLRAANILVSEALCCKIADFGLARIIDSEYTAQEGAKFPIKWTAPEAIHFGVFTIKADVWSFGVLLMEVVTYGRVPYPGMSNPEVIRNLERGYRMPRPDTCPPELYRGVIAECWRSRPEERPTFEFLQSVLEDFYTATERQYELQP
# T4 sequence (Q96GD4 whole entry): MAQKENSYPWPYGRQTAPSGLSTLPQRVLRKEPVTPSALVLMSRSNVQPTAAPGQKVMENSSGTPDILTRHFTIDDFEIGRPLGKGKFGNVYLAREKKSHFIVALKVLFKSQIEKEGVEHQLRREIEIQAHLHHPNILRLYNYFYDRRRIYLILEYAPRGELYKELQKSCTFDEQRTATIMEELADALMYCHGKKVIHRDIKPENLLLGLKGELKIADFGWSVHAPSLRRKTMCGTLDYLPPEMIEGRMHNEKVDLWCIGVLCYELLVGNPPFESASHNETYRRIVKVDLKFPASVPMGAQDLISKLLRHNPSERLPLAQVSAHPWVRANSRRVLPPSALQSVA
smiles,measurement,setting,value
C=CC(=O)Nc1cc(-c2cc(-c3cc4c([nH]3)CCNC4=O)ccn2)ccc1OC(F)(F)F [compound 11],inhibition at 0.01 µM,[1]; 10 nM,-2%
same,inhibition at 0.1 µM,[1]; 100 nM,6%
same,inhibition at 1 µM,[1]; 1000 nM,7%
same,inhibition at 0.01 µM,[2]; 10 nM,0%
same,inhibition at 0.1 µM,[2]; 100 nM,10%
same,inhibition at 1 µM,[2]; 1000 nM,24%
same,inhibition at 0.01 µM,[3]; 10 nM,-2%
same,inhibition at 0.1 µM,[3]; 100 nM,0%
same,inhibition at 1 µM,[3]; 1000 nM,-3%
same,inhibition at 0.01 µM,[4]; 10 nM,4%
same,inhibition at 0.1 µM,[4]; 100 nM,19%
same,inhibition at 1 µM,[4]; 1000 nM,27%
same,inhibition at 0.01 µM,[5]; 10 nM,-2%
same,inhibition at 0.1 µM,[5]; 100 nM,-1%
same,inhibition at 1 µM,[5]; 1000 nM,5%
same,inhibition at 0.01 µM,[6]; 10 nM,-4%
same,inhibition at 0.1 µM,[6]; 100 nM,-7%
same,inhibition at 1 µM,[6]; 1000 nM,-3%
same,inhibition at 0.01 µM,[7]; 10 nM,13%
same,inhibition at 0.1 µM,[7]; 100 nM,4%
same,inhibition at 1 µM,[7]; 1000 nM,12%
same,inhibition at 0.01 µM,[8]; 10 nM,-7%
same,inhibition at 0.1 µM,[8]; 100 nM,-5%
same,inhibition at 1 µM,[8]; 1000 nM,-5%
same,inhibition at 0.01 µM,[9]; 10 nM,-9%
same,inhibition at 0.1 µM,[9]; 100 nM,-2%
same,inhibition at 1 µM,[9]; 1000 nM,3%
same,inhibition at 0.01 µM,[10]; 10 nM,1%
same,inhibition at 0.1 µM,[10]; 100 nM,2%
same,inhibition at 1 µM,[10]; 1000 nM,3%
